Test system: MDA-MB-231_Luc_D3H2LN cell line
Test: Mice implanted with breast cancer metastatic cell line
Type: in vivo
Settings: 40 mg/kg intraperitoneal injection every day from Day 7, vs non-administration group (PBS)
Description: As a breast cancer metastatic cell line, an MDA-MB-231_Luc_D3H2LN cell line (hereafter referred to as D3H2LN) was used. […] Specifically, the amounts of secreted EVs in the parent cell line and the D3H2LN were measured by the NTA analysis in the same manner as in Example A1, and also, expression of PSAT1 in the parent cell line and the D3H2LN were measured by Western blotting.
Immunodeficient mice C. B-17 scid mice (female, 6-week old) were used as mice. The D3H2LN was suspended in PBS to prepare a cell suspension of 1×10^6 cells/100 μL. Then, on the 0th day (Day 0), 100 μL of the cell suspension was subcutaneously implanted in the mammary gland of each mouse by injection. Then, on the 7th day (Day7), the D3H2LN cells had engrafted, and to mice of an inhibitor administration group (n=6), an NCT-503 solution (solvent: PBS) was administered by intraperitoneal injection every day at 40 mg/kg of body weight. To mice of a non-administration group (n=6, Vehicle), the same amount of PBS was administered every day instead of the NCT-503. For each of the mice in both the administration group and the non-administration group, the tumor volume in the primary lesion (mammary gland) was measured every week using an IVIS-Spectrum (Summit Pharmaceuticals International Corporation). Specifically, the tumor volume was calculated as per the mathematical expression using the longest diameter and the shortest diameter (shortest diameter×shortest diameter×longest diameter×0.5). Also, the body weight of each mouse was measured every day to determine the toxicity. On the 35th day (Day 35), the mice were sacrificed and the mammary gland as the primary lesion and the lungs as the metastatic lesion were excised from each mouse, after which the weight of the primary lesion was measured.

Structure (SMILES): Cc1cc(C)nc(NC(=S)N2CCN(Cc3ccc(C(F)(F)F)cc3)CC2)c1 [NCT-503]
- tumor volume of the primary lesion (mammary gland) (Day 21 and Day 35): significantly reduced
- metastatic lesions in the lungs (HE-stained) (Day 35): fewer metastatic lesions
- tumor weight of the primary lesion (mammary gland) (Day 35): significantly reduced
